Experimental data as given in patent publication US20260028354A1, “TETRAHYDRONAPHTHALENE DERIVATIVES AS ESTROGEN RECEPTOR DEGRADERS” (REGENT OF THE UNIVERSITY OF MICHIGAN, priority 2022, published 2026).
Where two headings read alike, the source gives them in different places.

Legend:
[1] = molecular target: ER in T47D cells (Homo sapiens (Human), UniProt P03372); test: In-cell Western (ICW) ER degradation assay in T47D cells; assay type: cell-based; conditions: for DC50: ER degradation
Excerpt: In-cell Western (ICW) assays in MCF-7 and T47D cell lines.
Day 3: After 16 hrs of compounds treatment, cells were fixed by 4% PFA and permeabilized with elution buffer (0.1% Triton X-100 in 1% PBS Solution). Subsequently, cells were blocked with Intercept (PBS) Blocking Buffer (Li-COR, Odyssey Blocking Buffer), and were stained with ER (1:500, Cell signaling) primary antibody for overnight at cold room.
Day 4: Remove the buffer, add IRDye 800CW Goat anti-Rabbit IgG Secondary Antibody (1:2000) and CellTag 700 Stain (1:500) in Intercept (PBS) Blocking Buffer. Finally, cell plate is placed in incubator to dry. Image and signal were captured on Odyssey® DLx Imaging System.

[2] = molecular target: CRBN/DDB1 (Homo sapiens (Human), UniProt Q96SW2); assay type: binding; conditions: His tagged CRBN+DDB1, Cy5-labeled Thalidomide probe, one hour; read-out: CRBN HTRF IC50
Procedure: The binding potency was determined using HTRF assay technology (Perkin Elmer). Compounds were serially diluted in DMSO and […] volume was transferred to white 384-well plate.

[3] = molecular target: ER in MCF-7 cells (Homo sapiens (Human), UniProt P03372); test: In-cell Western (ICW) ER degradation assay in MCF-7 cells; assay type: cell-based; conditions: for DC50: MCF-7, ER degradation, read-out: MCF7 DC50; for MCF7 Dmax: MCF-7, maximal ER degradation
[4] = MCF7, read-out: MCF7 Dmax, MCF-7, maximal ER degradation, 16 hrs treatment
[5] = maximal ER degradation, 16 hrs treatment
[6] = MCF7, MCF-7, maximal ER degradation, 16 hrs treatment, read-out: MCF7 Dmax

Sequence of ER in T47D cells (P03372 whole entry): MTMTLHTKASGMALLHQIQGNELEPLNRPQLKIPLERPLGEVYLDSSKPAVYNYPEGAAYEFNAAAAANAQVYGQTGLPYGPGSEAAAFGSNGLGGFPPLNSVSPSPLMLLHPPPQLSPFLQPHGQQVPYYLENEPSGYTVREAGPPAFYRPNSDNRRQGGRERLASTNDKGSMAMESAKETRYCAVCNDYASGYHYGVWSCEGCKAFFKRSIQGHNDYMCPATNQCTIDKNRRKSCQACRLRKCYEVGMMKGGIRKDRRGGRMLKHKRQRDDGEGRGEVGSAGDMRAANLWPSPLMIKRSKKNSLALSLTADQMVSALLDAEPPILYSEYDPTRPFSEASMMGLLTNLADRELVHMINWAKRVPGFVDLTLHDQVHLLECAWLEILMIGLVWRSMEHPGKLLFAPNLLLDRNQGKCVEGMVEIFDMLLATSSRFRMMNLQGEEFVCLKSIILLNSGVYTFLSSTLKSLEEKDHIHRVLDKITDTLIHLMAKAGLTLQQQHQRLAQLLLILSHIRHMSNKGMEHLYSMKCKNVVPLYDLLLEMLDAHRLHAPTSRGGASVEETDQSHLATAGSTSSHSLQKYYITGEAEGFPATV
Sequence of ER in MCF-7 cells (P03372 whole entry): as above
Sequence of CRBN/DDB1 (Q96SW2 whole entry, species assumed): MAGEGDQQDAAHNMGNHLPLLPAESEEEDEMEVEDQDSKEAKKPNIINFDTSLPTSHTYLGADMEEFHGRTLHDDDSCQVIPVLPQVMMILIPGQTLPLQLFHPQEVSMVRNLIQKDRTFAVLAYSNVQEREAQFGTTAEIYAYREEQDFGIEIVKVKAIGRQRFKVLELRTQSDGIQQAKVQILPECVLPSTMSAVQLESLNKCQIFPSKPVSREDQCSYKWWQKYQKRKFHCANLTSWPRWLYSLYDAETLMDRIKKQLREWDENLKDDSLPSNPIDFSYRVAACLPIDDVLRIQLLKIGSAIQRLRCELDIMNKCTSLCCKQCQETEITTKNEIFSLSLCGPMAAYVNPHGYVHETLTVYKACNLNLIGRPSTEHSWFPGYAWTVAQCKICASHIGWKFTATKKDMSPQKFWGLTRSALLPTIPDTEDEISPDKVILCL
Sequence of CRBN/DDB1 (Q16531 whole entry partner, species assumed): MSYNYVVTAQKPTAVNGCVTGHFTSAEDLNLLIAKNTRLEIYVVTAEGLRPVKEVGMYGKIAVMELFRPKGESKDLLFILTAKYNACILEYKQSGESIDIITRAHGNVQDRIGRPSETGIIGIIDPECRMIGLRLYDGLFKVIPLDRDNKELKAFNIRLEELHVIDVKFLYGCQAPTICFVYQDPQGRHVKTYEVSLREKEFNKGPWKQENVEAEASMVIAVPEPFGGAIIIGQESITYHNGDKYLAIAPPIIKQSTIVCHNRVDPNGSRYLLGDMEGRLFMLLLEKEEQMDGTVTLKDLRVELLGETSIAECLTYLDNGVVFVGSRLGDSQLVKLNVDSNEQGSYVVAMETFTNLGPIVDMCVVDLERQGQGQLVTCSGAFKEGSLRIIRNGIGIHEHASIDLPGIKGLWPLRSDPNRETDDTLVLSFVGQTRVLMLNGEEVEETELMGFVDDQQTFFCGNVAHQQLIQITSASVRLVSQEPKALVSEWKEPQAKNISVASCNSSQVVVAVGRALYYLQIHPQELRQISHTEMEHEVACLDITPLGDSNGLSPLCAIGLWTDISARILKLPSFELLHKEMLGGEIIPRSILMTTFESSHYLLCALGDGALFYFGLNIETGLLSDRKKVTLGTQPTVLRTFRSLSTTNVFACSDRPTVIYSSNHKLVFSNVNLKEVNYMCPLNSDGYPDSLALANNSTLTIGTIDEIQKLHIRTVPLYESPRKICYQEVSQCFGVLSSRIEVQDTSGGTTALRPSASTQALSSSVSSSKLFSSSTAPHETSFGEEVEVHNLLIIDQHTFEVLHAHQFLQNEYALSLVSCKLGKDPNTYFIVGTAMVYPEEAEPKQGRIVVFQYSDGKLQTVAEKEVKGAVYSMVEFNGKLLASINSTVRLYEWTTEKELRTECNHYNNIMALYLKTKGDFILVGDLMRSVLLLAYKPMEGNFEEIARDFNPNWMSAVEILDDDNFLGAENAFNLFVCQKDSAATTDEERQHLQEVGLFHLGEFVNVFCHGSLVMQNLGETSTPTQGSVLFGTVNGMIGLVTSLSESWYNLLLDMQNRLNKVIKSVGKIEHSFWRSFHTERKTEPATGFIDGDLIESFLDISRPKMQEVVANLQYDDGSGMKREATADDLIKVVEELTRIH

Compound | DC50 ([1]; 16 hrs treatment) [nM] | Dmax ([1]; read-out: T47D Dmax, T47D, maximal ER degradation, 16 hrs treatment) [%] | IC50 [2] [nM] | Dmax [3, 4] [%] | DC50 ([3]; 16 hrs treatment) [nM] | Dmax ([1]; maximal ER degradation, 16 hrs treatment, read-out: T47D Dmax) [%] | T47D Dmax [1, 5] | MCF7 Dmax ([3]; 16 hrs treatment) | Dmax [3, 6] [%]
COc1cc(N2CCC(CN3CC[C@@]4(c5ccc(N[C@@H]6CCC(=O)NC6=O)cc5)C(C3)C4(F)F)CC2)ccc1[C@@H]1c2ccc(O)cc2CC[C@@H]1c1ccccc1 (mixture of isomers) [Compound A88, (3R)-3-((4-((1R)-7,7-difluoro-3-((1-(4-((1SR,2SR)-6-hydroxy-2-phenyl-1,2,3,4-tetra-hydronaphthalen-1-yl)-3-meth-oxyphenyl)piperidin-4-yl)meth-yl)-3-azabicyclo[4.1.0]heptan-6-yl)phenyl)amino)piperidine-2,6-dione] | < 1 | 25 to 50 | > 5000 | 50 to 75 | 1 to 10 |  |  |  | 
COc1nc(C(=O)NC2CCC(=O)NC2=O)ccc1N1CCN(CC2CCN(c3ccc([C@@H]4c5ccc(O)cc5CC[C@@H]4c4ccccc4)cc3)CC2)CC1 (single isomer, unassigned) [Compound A1] | 1 to 10 |  | 500 to 5000 |  |  | 25 to 50 |  |  | 
O=C1CC[C@H](N2Cc3c(ccc4c3OC[C@H]3CN(CC5COC6(C5)CN(c5ccc([C@@H]7c8ccc(O)cc8CC[C@@H]7c7ccccc7)cc5)C6)CCN43)C2=O)C(=O)N1 (single isomer, unassigned) [Compound A7] | < 1 |  | 500 to 5000 |  | < 1 |  | B (“B”: >50 and <75%) | B (“B”: >50 and <75%) | 
COc1cc([C@@H]2c3ccc(O)cc3CC[C@@H]2c2ccccc2)c(F)cc1N1CCC(CN2CCN3c4ccc5c(c4OC[C@H]3C2)CN([C@H]2CCC(=O)NC2=O)C5=O)CC1 (single isomer, unassigned) [Compound A98] | 10 to 100 |  | 50 to 500 |  |  |  | C (“C”: 25-50%) |  | 
COc1cc(C2c3ccc(O)cc3CCC2c2ccccc2)c(F)cc1N1CCC(CN2CCN3c4ccc5c(c4OC[C@H]3C2)CN([C@H]2CCC(=O)NC2=O)C5=O)CC1 (stereo in doubt) [Compound A97, (S)-3-((R)-7-((1-(5-fluoro-4-((1R,2R)-6-hydroxy-2-phenyl-1,2,3,4-tetrahydronaphthalen-1-yl)-2-methoxyphenyl)piperidin-4-yl)methyl)-1-oxo-1,3,5,5a,6,7,8,9-octahydro-2H-pyrazino[1′,2′: 4,5][1,4]oxazino[2,3-e]isoindol-2-yl)piperidine-2,6-dione] | 1 to 10 |  | 50 to 500 |  |  |  | A (“A”: >=75%) |  | 
O=C1CC[C@H](N2Cc3c(ccc4c3OCC43CCN(C4CN(CCOc5ccc([C@@H]6c7ccc(O)cc7CC[C@@H]6c6ccccc6)cc5)C4)CC3)C2=O)C(=O)N1 [Compound A80, (S)-3-(1′-(1-(2-(4-((1R,2S)-6-hydroxy-2-phenyl-1,2,3,4-tetrahydronaphthalen-1-yl)-phenoxy)ethyl)azetidin-3-yl)-6-oxo-6,8-dihydro-2H,7H-spiro[furo[2,3-c]isoindolc-3,4′-piperidin]-7-yl)piperidine-2,6-dione] |  |  | < 50 | 50 to 75 | < 1 |  |  |  | 
O=C1CC[C@H](N2Cc3c(ccc4c3OCC43CCN(CC4CC5COCC(C4)N5c4ccc([C@@H]5c6ccc(O)cc6CC[C@@H]5c5ccccc5)cc4)CC3)C2=O)C(=O)N1 (stereo partly drawn) [Compound A81, (3S)-3-(1′-((9-(4-((1R,2S)-6-hydroxy-2-phenyl-1,2,3,4-tetra-hydronaphthalen-1-yl)phenyl)-3-oxa-9-azabicyclo[3.3.1]nonan-7-yl)methyl)-6-oxo-6,8-dihydro-2H,7H-spiro[furo[2,3-e]isoindole-3,4′-piperidin]-7-yl)piperidine-2,6-dione] |  |  | < 50 | 25 to 50 | < 1 |  |  |  | 
O=C1CC[C@H](N2Cc3c(ccc4c3OC[C@H]3CN(CC5CC6COCC(C5)N6c5ccc([C@@H]6c7ccc(O)cc7CC[C@@H]6c6ccccc6)cc5)CCN43)C2=O)C(=O)N1 (stereo partly drawn) [Compound A83, (3S)-3-((5aR)-7-((9-(4-((1R, 2S)-6-hydroxy-2-phenyl-1,2,3,4-tetrahydronaphthalen-1-yl)phenyl)-3-oxa-9-azabi-cyclo[3.3.1]nonan-7-yl)meth-yl)-1-oxo-1,3,5,5a,6,7,8,9-octa-hydro-2H-pyrazino[1′,2′:4,5] [1,4]oxazino[2,3-e]isoindol-2-yl)piperidine-2,6-dione] | < 1 |  | 50 to 500 |  |  |  | B (“B”: >50 and <75%) |  | 
COc1cc([C@H]2c3ccc(O)cc3CC[C@H]2c2ccccc2)c(F)cc1N1CCC2(CC1)CC(CN1CCN3c4ccc5c(c4OC[C@H]3C1)CN([C@H]1CCC(=O)NC1=O)C5=O)C2 [Compound A117, (S)-3-((R)-7-((7-(5-fluoro-4-((1R,2R)-6-hydroxy-2-phenyl-1,2,3,4-tetrahydronaphthalen-1-yl)-2-methoxyphenyl)-7-aza-spiro[3.5]nonan-2-yl)methyl)-1-oxo-1,3,5,5a,6,7,8,9-octa-hydro-2H-pyrazino[1′,2′:4,5] [1,4]oxazino[2,3-e]isoindol-2-yl)piperidine-2,6-dione] |  |  | < 50 |  | 10 to 100 |  |  |  | 25 to 50
COc1cc(N2CCC(CN3CCC(c4ccc(N[C@H]5CCC(=O)NC5=O)c(F)c4)CC3)CC2)c(F)cc1[C@@H]1c2ccc(O)cc2CC[C@@H]1c1ccccc1 [Compound A118, (S)-3-((2-fluoro-4-(1-((1-(2-fluoro-4-((1S,2S)-6-hydroxy-2-phenyl-1,2,3,4-tetrahydronaph-thalen-1-yl)-5-methoxyphenyl)-piperidin-4-yl)methyl)piper-idin-4-yl)phenyl)amino)piper-idine-2,6-dione] |  |  | 500 to 5000 |  | < 1 |  |  |  | 25 to 50
O=C1CC[C@H](N2Cc3cc4c(cc3C2=O)OCC42CCN(CC3CC4(CCN(c5ccc([C@H]6c7ccc(O)cc7CC[C@H]6c6ccccc6)cn5)CC4)C3)CC2)C(=O)N1 [Compound A125, (S)-3-(1′-((7-(5-((1R,2R)-6-hydroxy-2-phenyl-1,2,3,4-tetra-hydronaphthalen-1-yl)pyridin-2-yl)-7-azaspiro[3.5]nonan-2-yl)methyl)-7-oxo-5,7-dihydro-2H,6H-spiro[furo[2,3-f]iso-indole-3,4′-piperidin]-6-yl)-piperidine-2,6-dionc] | 10 to 100 |  | 50 to 500 |  |  |  | B (“B”: >50 and <75%) |  | 
O=C1CC[C@H](N2Cc3c(ccc4c3OCC43CCN(CC4CC5(CCN(c6ncc([C@H]7c8ccc(O)cc8CC[C@H]7c7ccccc7)cn6)CC5)C4)CC3)C2=O)C(=O)N1 [Compound A141, (S)-3-(1′-((7-(5-((1R,2R)-6-hydroxy-2-phenyl-1,2,3,4-tetrahydronaphthalen-1-yl)pyrimidin-2-yl)-7-azaspiro[3.5]nonan-2-yl)methyl)-6-oxo-6,8-dihydro-2H,7H-spiro[furo[2,3-e]isoindole-3,4′-piperidin]-7-yl)piperidine-2,6-dione] |  |  | < 50 | 50 to 75 | 1 to 10 |  |  |  | 
O=C1CC[C@H](N2Cc3c(ccc4c3OCC43CCN(CC4CC5(CCN(c6ncc([C@@H]7c8ccc(O)cc8CC[C@@H]7c7ccccc7)cn6)CC5)C4)CC3)C2=O)C(=O)N1 [Compound A142, (S)-3-(1′-((7-(5-((1S,2S)-6-hydroxy-2-phenyl-1,2,3,4-tetrahydronaphthalen-1-yl)pyrimidin-2-yl)-7-azaspiro[3.5]nonan-2-yl)methyl)-6-oxo-6,8-dihydro-2H,7H-spiro[furo[2,3-e]isoindole-3,4′-piperidin]-7-yl)piperidine-2,6-dione] |  |  | < 50 | 50 to 75 | < 1 |  |  |  | 
O=C1CC[C@H](N2Cc3c(ccc4c3OCC43CCN(CC4CCC5(CC4)CN(c4ncc([C@H]6c7ccc(O)cc7CC[C@H]6c6ccccc6)cn4)C5)CC3)C2=O)C(=O)N1 [Compound A153, (S)-3-(1′-((2-(5-((1R,2R)-6-hydroxy-2-phenyl-1,2,3,4-tetrahydronaphthalen-1-yl)pyrimidin-2-yl)-2-azaspiro[3.5]nonan-7-yl)methyl)-6-oxo-6,8-dihydro-2H,7H-spiro[furo[2,3-e]isoindole-3,4′-piperidin]-7-yl)piperidine-2,6-dione] |  |  | < 50 | < 25 | > 100 |  |  |  | 
O=C1CC[C@H](N2Cc3c(ccc4c3OCC43CCN(CC4CCC5(CC4)CN(c4ccc([C@H]6c7ccc(O)cc7CC[C@H]6c6ccccc6)cc4F)C5)CC3)C2=O)C(=O)N1 [Compound A160, (S)-3-(1′-((2-(2-fluoro-4-((1S, 2R)-6-hydroxy-2-phenyl-1,2,3,4-tetrahydronaphthalen-1-yl)phenyl)-2-azaspiro[3.5]nonan-7-yl)methyl)-6-oxo-6,8-dihydro-2H,7H-spiro[furo[2,3-c]isoindolc-3,4′-pipcridin]-7-yl)pipcridinc-2,6-dione] |  |  | 50 to 500 | 50 to 75 | 10 to 100 |  |  |  | 
(S)-3-((3-fluoro-4-(1-((1-(2-fluoro-4-((1S,2S)-6-hydroxy-2-phenyl-1,2,3,4-tetrahydronaphthalen-1-yl)-5-methoxyphenyl)piperidin-4-yl)methyl)piperidin-4-yl)phenyl)amino)piperidine-2,6-dione [Compound A120] |  |  | 500 to 5000 |  | 10 to 100 |  |  | C (“C”: 25-50%) | 
